How the values were obtained:
[1] = cited from earlier work
[2] = human, in vivo; cited from earlier work
[3] = tested on: rabbit VX2 carcinoma and rat 9L gliosarcoma; conditions: implanted intracerebral tumors; cited from earlier work
copper [4] = conditions: cited from earlier work
copper [5] = conditions: at a cupruresis of 2-3 mg
copper absorption = conditions: cited from earlier work
[6] = therapeutic dose 1,000-2,000 mg/day

## [Mo] [Mo, molybdenum]
[1]; 5-20 mg/kg/day of Mo for 4-11 months
  efficacy: not effective
[1]; 350 to 1400 mg/day (5-20 mg/kg/day) of Mo for 4-11 months
  toxicity: without known toxicity

## CC(C)(S)[C@@H](N)C(=O)O [penicillamine]
[2]
  patients developing an initial hypersensitivity syndrome: a quarter to a third of patients
[3]
  survival: did not show improved survival over untreated controls

## NCCNCCNCCN [trientine]
Copper [4]; after several weeks of use
  patients with proteinuria: about 20 % of patients
Copper [4]; [6]
  cupruresis after the first few weeks of therapy: 2 to 3 mg
  cupruresis, initial: 4 to 5 mg
Copper [5]
  negative copper balance: 1.5 to 2.5 mg/day

## [Zn] [zinc]
Copper absorption; 150 mg daily, 200 Wilson's disease patients
  toxicity: no toxicity at all
Copper absorption; at the two week point
  copper balance, average: −0.35 mg daily
Copper absorption; human, in vivo
  time to bring urine copper and nonceruloplasmin plasma copper down to subtoxic levels: as long as six months
  time to intestinal metallothionein induction and a negative copper balance: approximately two weeks

Source: patent publication US7438931B2, “Methods and compositions for the treatment of angiogenic diseases” (The Regents of The University of Michigan, priority 1998, dated 2008)
